The values that follow come from patent US20240409536A1, “COMPOUNDS AND METHODS FOR MODULATING SPLICING” (REMIX THERAPEUTICS INC., priority 2021, published 2024).

SMILES strings stand for the structures. pIC50: −log10 of the molar value. Structures can show the parent of a compound that is named as a salt.

In one assay the test system is Target C mRNA. Description: Gene panel canonical junction qPCR assay, Target C CJ mRNA decrease. The settings on record: Homo sapiens, canonical junction qPCR, read-out: Target C IC50 (decrease in CJ mRNA levels). The assay is classed as cell-based. Put shortly:
(§1)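 IC50 values describe loss of canonical-junction transcript, fitted by 4-parameter logistic to percent response derived from fixed ΔCt windows. Read-out: RT-qPCR on lysates of compound-treated K562 or A673 cells, probes overlapping the exon junction, ΔΔCt versus housekeeping gene and DMSO control.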

Another assay concerns SMN2 mRNA. Description: Gene panel canonical junction qPCR assay, SMN2 CJ mRNA decrease. The settings on record: Homo sapiens, canonical junction qPCR, read-out: SMN2 IC50 (decrease in CJ mRNA levels). The format is cell-based, human. Put shortly: as §1
(In general: In qPCR the cycle at which signal appears reflects the starting amount.)

Another assay deals with HiBiT-tagged HTT protein. Description: HiBiT protein abundance assay, HTT (K562 HiBiT knock-in cells). The format is cell-based, human. The settings on record: 24 hours. The method in brief: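 K562 cells with endogenous HiBiT knock-in tag, 10-point 3-fold dilutions (top 10 μM final, ≤0.25% DMSO), 24 h at 37 °C. Lytic Nano-Glo HiBiT luminescence, normalized to DMSO and unmodified K562 baselines; IC50 is concentration giving 50% protein abundance from four-parameter fit.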
On the technique in general: With HiBiT, luminescence reflects the tagged protein that the partner subunit can reach.

The next assay deals with Target C. As to the kind of experiment: HiBiT protein abundance assay, Target C (K562 HiBiT knock-in cells). The assay is classed as cell-based, human. The settings on record: 24 hours. Put shortly:
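K562 knock-in cells (10000/well, IMDM+1% FBS) treated 24 h at 37 °C with 10-point 3-fold dilutions, top final 10 μM, DMSO ≤0.25%. HiBiT lytic luminescence read; response normalized to unmodified K562 and DMSO-treated controls. IC50 interpolated at 50% abundance by four-parameter logistic fit.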

In general, pIC50 refers to −log10 of the IC50, conventionally taken in molar units. For the compound `Cc1cn2cc(NC(=O)c3ccc(N4CCNCC4)c4ccnnc34)nc(C)c2n1` [Compound 164, N-{2,8-dimethylimidazo[1,2-a]pyrazin-6-yl}-5-(piperazin-1-yl)cinnoline-8-carboxamide 2,2,2-trifluoroacetate], the pIC50 with Target C mRNA was < 5.00; with SMN2 mRNA, > 7.00; with HiBiT-tagged HTT protein, 5.00 to 6.00; in the assay on Target C, < 5.00.

With `Cc1cn2cc(NC(=O)c3ccc(N4CCNCC4)c4cccnc34)cc(F)c2n1` [Compound 165, N-{8-fluoro-2-methylimidazo[1,2-a]pyridin-6-yl}-5-(piperazin-1-yl)quinoline-8-carboxamide], the pIC50 with Target C mRNA was 5.00 to 6.00; with SMN2 mRNA it was > 7.00; with HiBiT-tagged HTT protein, 6.00 to 7.00; in the assay on Target C, 5.00 to 6.00.

For the compound `Cc1cn2cc(NC(=O)c3ccc(N4CCNCC4)c4nnccc34)cc(F)c2n1` [Compound 166, N-(8-fluoro-2-methylimidazo[1,2-a]pyridin-6-yl)-8-(piperazin-1-yl)cinnoline-5-carboxamide 2,2,2-trifluoroacetate], the pIC50 in the assay with Target C mRNA, in the assay with SMN2 mRNA, in the assay on HiBiT-tagged HTT protein and in the assay with Target C was < 5.00 each time.

Consider `Cc1cn2cc(NC(=O)c3ccc(N4CCNCC4)c4ccnnc34)cc(C#N)c2n1` [Compound 167, N-{8-cyano-2-methylimidazo[1,2-a]pyridin-6-yl}-5-(piperazin-1-yl)cinnoline-8-carboxamide trifluoroacetic acid salt], for which the pIC50 was < 5.00 in the assay with Target C mRNA, > 7.00 in the assay with SMN2 mRNA, 5.00 to 6.00 in the assay with HiBiT-tagged HTT protein and 5.00 to 6.00 in the assay on Target C.

For the compound `CCc1cc(NC(=O)c2ccc(N3CCNCC3)c3ccnnc23)nn2cc(C)nc12` [Compound 168, N-{8-ethyl-2-methylimidazo[1,2-b]pyridazin-6-yl}-5-(piperazin-1-yl)cinnoline-8-carboxamide trifluoroacetic acid salt], the pIC50 was < 5.00 in the assay with Target C mRNA, 6.00 to 7.00 in the assay on SMN2 mRNA, < 5.00 in the assay on HiBiT-tagged HTT protein and < 5.00 with Target C.

In the case of `COc1ccc2c(N3CCNCC3)ccc(C(=O)Nc3cc(F)c4nc(C)cn4c3)c2n1` [Compound 169, N-{8-fluoro-2-methylimidazo[1,2-a]pyridin-6-yl}-2-methoxy-5-(piperazin-1-yl)quinoline-8-carboxamide], the pIC50 is 5.00 to 6.00 in the assay on Target C mRNA, > 7.00 in the assay with SMN2 mRNA, 6.00 to 7.00 in the assay on HiBiT-tagged HTT protein and 5.00 to 6.00 with Target C.

With `Cc1cn2cc(NC(=O)c3ccc(N4C[C@@H](C)N[C@@H](C)C4)c4ccnnc34)nc(C)c2n1` [Compound 172, N-{2,8-dimethylimidazo[1,2-a]pyrazin-6-yl}-5-[(3R,5S)-3,5-dimethylpiperazin-1-yl]cinnoline-8-carboxamide], the pIC50 in the assay with Target C mRNA is 5.00 to 6.00; in the assay on SMN2 mRNA, > 7.00; in the assay with HiBiT-tagged HTT protein it was < 5.00; in the assay on Target C it was < 5.00.

Turning to `COCCOc1ccc2c(N3CCNCC3)ccc(C(=O)Nc3cc(F)c4nc(C)cn4c3)c2n1` [Compound 173, N-{8-fluoro-2-methylimidazo[1,2-a]pyridin-6-yl}-2-(2-methoxyethoxy)-5-(piperazin-1-yl)quinoline-8-carboxamide], the pIC50 is 5.00 to 6.00 with Target C mRNA, > 7.00 in the assay with SMN2 mRNA, < 5.00 with HiBiT-tagged HTT protein and < 5.00 in the assay on Target C.

For `COc1cc(NC(=O)c2ccc(N3CCNCC3)c3ccnnc23)cn2cc(C)nc12` [Compound 176, N-{8-methoxy-2-methylimidazo[1,2-a]pyridin-6-yl}-5-(piperazin-1-yl)cinnoline-8-carboxamide trifluoroacetate], the pIC50 in the assay on Target C mRNA is < 5.00; in the assay with SMN2 mRNA, > 7.00; with HiBiT-tagged HTT protein, 5.00 to 6.00; in the assay with Target C, 5.00 to 6.00.

With `Cc1cn2cc(NC(=O)c3ccc(N4CCNCC4)c4ccnnc34)[nH]c(=O)c2n1` [Compound 177, N-{2-methyl-8-oxo-7H-imidazo[1,2-a]pyrazin-6-yl}-5-(piperazin-1-yl)cinnoline-8-carboxamide trifluoroacetic acid salt], the pIC50 with Target C mRNA, with SMN2 mRNA, in the assay with HiBiT-tagged HTT protein and in the assay with Target C was 6.00 to 7.00 in each case.

As for `Cc1nc(NC(=O)c2ccc(N3CCNCC3)c3ccnnc23)cc2cn(C)nc12` [Compound 178, N-{2,7-dimethylpyrazolo[3,4-c]pyridin-5-yl}-5-(piperazin-1-yl)cinnoline-8-carboxamide], the pIC50 in the assay on Target C mRNA is < 5.00; with SMN2 mRNA, > 7.00; in the assay on HiBiT-tagged HTT protein, 5.00 to 6.00; in the assay with Target C, < 5.00.

Turning to `COc1nc(NC(=O)c2ccc(N3CCNCC3)c3ccnnc23)cn2cc(C)nc12` [Compound 179, N-{8-methoxy-2-methylimidazo[1,2-a]pyrazin-6-yl}-5-(piperazin-1-yl)cinnoline-8-carboxamide], the pIC50 in the assay with Target C mRNA was < 5.00; in the assay with SMN2 mRNA, > 7.00; in the assay with HiBiT-tagged HTT protein it was 5.00 to 6.00; with Target C it was < 5.00.

Take `Cc1c(O)c(NC(=O)c2ccc(N3CCNCC3)c3ccnnc23)cc2cn(C)nc12` [Compound 181, N-(6-hydroxy-2,7-dimethylindazol-5-yl)-5-(piperazin-1-yl)cinnoline-8-carboxamide]: the pIC50 in the assay with Target C mRNA is < 5.00; in the assay on SMN2 mRNA, > 7.00; in the assay with HiBiT-tagged HTT protein it was < 5.00; in the assay with Target C it was < 5.00.

Regarding `Cc1cn2cc(NC(=O)c3ccc(N4CCNCC4)c4ccnnc34)cc(C(C)O)c2n1` (stereo not shown) [Compound 182, N-[8-(1-hydroxyethyl)-2-methylimidazo[1,2-a]pyridin-6-yl]-5-(piperazin-1-yl)cinnoline-8-carboxamide trifluoroacetate], the pIC50 in the assay with Target C mRNA was < 5.00; with SMN2 mRNA, 5.00 to 6.00; in the assay with HiBiT-tagged HTT protein it was < 5.00; in the assay on Target C it was < 5.00.

With `COc1cc2c(N3CCNCC3)ccc(C(=O)Nc3cc(F)c4nc(C)cn4c3)c2nn1` [Compound 183, N-{8-fluoro-2-methylimidazo[1,2-a]pyridin-6-yl}-3-methoxy-5-(piperazin-1-yl)cinnoline-8-carboxamide], the pIC50 in the assay on Target C mRNA is < 5.00; in the assay on SMN2 mRNA, > 7.00; in the assay with HiBiT-tagged HTT protein, 6.00 to 7.00; in the assay with Target C it was 5.00 to 6.00.

With `Cc1cn2cc(NC(=O)c3ccc(N4C[C@@H](C)N[C@@H](C)C4)c4nccnc34)cc(F)c2n1` [Compound 186, 8-(3,5-dimethylpiperazin-1-yl)-N-{8-fluoro-2-methylimidazo[1,2-a]pyridin-6-yl}quinoxaline-5-carboxamide], the pIC50 in the assay with Target C mRNA is < 5.00; in the assay with SMN2 mRNA, > 7.00; in the assay on HiBiT-tagged HTT protein, 5.00 to 6.00; with Target C, 5.00 to 6.00.

For the compound `Cc1cn2cc(NC(=O)c3ccc(N4CCN[C@@H](C)C4)c4nccnc34)cc(F)c2n1` [Compound 187, N-{8-fluoro-2-methylimidazo[1,2-a]pyridin-6-yl}-8-(3-methylpiperazin-1-yl) quinoxaline-5-carboxamide], the pIC50 in the assay on Target C mRNA is < 5.00; in the assay on SMN2 mRNA, > 7.00; with HiBiT-tagged HTT protein, 5.00 to 6.00; in the assay with Target C, 5.00 to 6.00.

Take `Cc1cn2cc(NC(=O)c3ccc(N4CCC5(CCN5)CC4)c4nccnc34)cc(F)c2n1` [Compound 189, 8-{1,7-diazaspiro[3.5]nonan-7-yl}-N-{8-fluoro-2-methylimidazo[1,2-a]pyridin-6-yl}quinoxaline-5-carboxamide]: the pIC50 with Target C mRNA was 5.00 to 6.00; with SMN2 mRNA, > 7.00; in the assay on HiBiT-tagged HTT protein it was 6.00 to 7.00; in the assay on Target C, 5.00 to 6.00.

As to `CNC1CCN(c2ccc(C(=O)Nc3cc(F)c4nc(C)cn4c3)c3nccnc23)C1` (stereo not shown) [Compound 190, N-{8-fluoro-2-methylimidazo[1,2-a]pyridin-6-yl}-8-[3-(methylamino)pyrrolidin-1-yl]quinoxaline-5-carboxamide], the negative-log IC50 (pIC50) is 5.00 to 6.00 with Target C mRNA, > 7.00 with SMN2 mRNA, 5.00 to 6.00 in the assay on HiBiT-tagged HTT protein and 5.00 to 6.00 in the assay with Target C.

Turning to `CCNC1CCN(c2ccc(C(=O)Nc3cc(F)c4nc(C)cn4c3)c3nccnc23)CC1` [Compound 191, 8-[4-(ethylamino)piperidin-1-yl]-N-{8-fluoro-2-methylimidazo[1,2-a]pyridin-6-yl}quinoxaline-5-carboxamide], the pIC50 in the assay on Target C mRNA is < 5.00; in the assay on SMN2 mRNA, > 7.00; in the assay on HiBiT-tagged HTT protein, 6.00 to 7.00; in the assay on Target C, 5.00 to 6.00.

On to `CNCC1CCN(c2ccc(C(=O)Nc3cc(F)c4nc(C)cn4c3)c3nccnc23)CC1` [Compound 192, N-{8-fluoro-2-methylimidazo[1,2-a]pyridin-6-yl}-8-{4-[(methylamino)methyl]piperidin-1-yl}quinoxaline-5-carboxamide trifluoroacetate], for which the pIC50 with Target C mRNA was 5.00 to 6.00; with SMN2 mRNA it was 6.00 to 7.00; with HiBiT-tagged HTT protein, 5.00 to 6.00; in the assay on Target C, 5.00 to 6.00.

Take `CNC1CCN(c2ccc(C(=O)Nc3cc(F)c4nc(C)cn4c3)c3nc(C)ccc23)C1` (stereo not shown) [Compound 196, N-{8-fluoro-2-methylimidazo[1,2-a]pyridin-6-yl}-2-methyl-5-[3-(methylamino)pyrrolidin-1-yl]quinoline-8-carboxamide 2,2,2-trifluoroacetate]: the pIC50 is 5.00 to 6.00 in the assay with Target C mRNA, > 7.00 in the assay with SMN2 mRNA, 5.00 to 6.00 in the assay on HiBiT-tagged HTT protein and 5.00 to 6.00 in the assay on Target C.
